Source: patent publication US20230044649A1, “METHODS TO ENHANCE BIOAVAVAILABILITY OF ORGANIC SMALL MOLECULES AND DEPOSITED FILMS MADE THEREFROM” (THE REGENTS OF THE UNIVERSITY OF MICHIGAN, priority 2015, published 2023)
Values after ≈ are worked out from the molar mass of the structure shown.

How the values were obtained:
[1] = test system: ovarian carcinoma cell line, OVCAR3; experiment: Cancer cell growth inhibition by drug film, powder or DMSO solution; type: cell-based; conditions: for OVCAR3 cancer cells viability: after 48 hours, nominal 5 μM
Description: The printed films of BAY 11-7082 are tested by applying OVCAR3 cells solution directly onto the film, as compared to the BAY 11-7082 drug in powder form dissolved in DMSO.
See FIG. 11 showing drug application in a film form.

[2] = Solubility at pH 7.4; type: physicochemical
[3] = physchem; conditions: 20 °C
Description: First, solubilities of the different compounds in corresponding solvents are measured at temperature 20±1° C.

[4] = Surface area of printed film and of powder; type: physicochemical
[5] = Initial dissolution rate of printed film versus loose powder (USP 2 stirring apparatus, UV-VIS); type: physicochemical
Text: When comparing dissolution from powder form and film form for the same material and same crystal structure, D, V, Cs are constant and initial dissolution rate will be proportional to A/δ. δ and A are constant for dissolution from film since area of the film is not changing during dissolution. In a powder, δ and A are changing since particles size and shape is changing. […] Therefore only the initial rate can be compared between powder and a film.
In order to compare film form versus original powder dissolution behavior, loose powders with same weight as films are introduced into 10 ml solution without any prior treatment and stirred using stirring rod with same shape and diameter as one that is used for films. All experiments are performed at temperature […].
(§1) For dissolution rate experiments a USP 2 stirring apparatus with stirring speed of 100 rpm is used. Concentration is monitored using UV-VIS spectrometer equipped with dipping probe. As an example glass slides substrates with deposited 9 mm diameter drug films are used. Films weights are in the range of 5-80 μg. First, intrinsic dissolution rate (IDR) of films is studied and compared it to dissolution of compressed powder in form of 1.57 mm diameter pellets. IDR is defined as Equation (4): […]

[6] = Intrinsic dissolution rate (IDR) of films compared with compressed powder pellets; type: physicochemical; conditions: comparable to compressed pellets, about 10 ml, 20±1° C., solvent per compound as
Description: as §1
In this case (dm/dt)max is maximum slope in a dissolution curve evaluated at the start of dissolution process (m—dissolved solute mass). Glass substrates with deposited films are attached to a stirring rod having same diameter as compressed pellets rod (20 mm), assuring that hydrodynamic boundary layer thickness is same for compressed powder and deposited film. Solution volume remains constant in all experiments, about 10 ml, and temperature is 20±1° C.

[7] = test system: breast carcinoma cell line, MCF7; experiment: Cancer cell growth inhibition by drug film, powder or DMSO solution; type: cell-based; conditions: after 48 hours, nominal 5 μM
[8] = powder form dissolved in growth medium

SMILES: Cc1ccc(S(=O)(=O)/C=C/C#N)cc1 [BAY 11-7082, (E)-3-(4-Methylphenylsulfonyl)-2-propenenitrile]
- efficacy / viability with film form drug compared with drug dissolved in DMSO ([1]; OVCAR3 cells applied directly onto the film): No significant difference in efficacy
- solubility [2]: 29.25 ± 0.05 µg/mL (≈ 141 µM)

SMILES: O=C1OC2(c3ccc(O)cc3Oc3cc(O)ccc32)c2ccccc21 [fluorescein]
- solubility ([3]; water): 10 ± 0.5 µg/mL (≈ 30.1 µM)

SMILES: CC(C)Cc1ccc(C(C)C(=O)O)cc1 (stereo not drawn) [ibuprofen]
- solubility ([3]; pH 1.2, simulated gastric fluid): 22.5 ± 0.5 µg/mL (≈ 109 µM)
- film surface area relative to powder surface area [4]: about 5 times higher
- enhancement of initial dissolution rate in film versus loose powder ([5]; aqueous HCl buffer pH 1.2, FIG. 10(b), 19±1° C.): about 30 times
- initial dissolution rate, printed film relative to powder ([5]; ibuprofen in buffer HCl 1.3): about 10 times higher
- initial dissolution rate ([5]; ibuprofen in buffer HCl 1.3, 30 μg of powder): 0.0004 µg/mL/s
- initial dissolution rate ([5]; ibuprofen in buffer HCl 1.3, printed film): 0.04 µg/mL/s
- intrinsic dissolution rate (IDR) [6]: 1×10^−3±3×10^−4 μg sec^−1 mm^−2

SMILES: CC/C(=C(\c1ccccc1)c1ccc(OCCN(C)C)cc1)c1ccccc1 [tamoxifen]
- OVCAR3 cancer cells viability ([1]; film form): 44%
- OVCAR3 cancer cells viability [1, 8]: 68%
- intrinsic dissolution rate (IDR) [6]: 6×10^−4±1×10^−4 μg sec^−1 mm^−2
- MCF7 cancer cells viability ([7]; film form): 58%
- MCF7 cancer cells viability [7, 8]: 79%
